Patent publication US10722530B2, “Methods of diagnosing and treating cancer” (CASE WESTERN RESERVE UNIVERSITY, priority 2016, dated 2020)

Assays:
H1299 = test: Clonogenic survival assay; type: cell-based; details: Homo sapiens, NCI-H1299; H1299 (p53 null), 24 h treatment, colonies after at least 10 days
Procedure: (§3) Cancer cells (200-300 cells/well) were seeded in 6-well culture dishes and allowed to adhere overnight. For 5-FdU, cells were treated for 24 h, then gently washed with PBS, and incubated with fresh media for at least 10 days to allow individual colonies to form. […] After 10-18 days, the plates were stained with methylene blue. Colonies containing ≥50 cells were counted. The percentage of survival was determined relative to untreated control averaged over 3 independent experiments.

DLD1 cells [1] = test: Cell cycle and BrdU/PI labeling analysis; type: cell-based, human; details: for cell cycle progression (PI staining): 100 nM 5-FdU; for cell cycle profile (BrdU and PI co-staining): 100 nM 5-FdU 24 h
Procedure: For cell cycle analysis, DLD1 cells were synchronize by serum starvation for 48 h and released in fresh media for 16 h. The cells were then treated with 100 nM 5-FdU for 4, 8, 12, 20, 24, 28, 32, 36, 48, 72, and 96 h. At each time point, cells were harvested and fixed with methanol. Fixed cells were incubated with DNase-free RNaseA (Roche) and stained with 50 μg/mL PI solution (Sigma-Aldrich). For BrdU/PI labeling analysis, cells were treated with 100 nM 5-FdU for 24 h and pulsed with 10 μM BrdU (BD Biosciences Pharmingen, BrdU Flow Kit) for 45 minutes before collecting cells. According to manufacturer's instructions from BD Biosciences Pharmingen, cells were fixed, treated with DNAse for 1 h at 37° C., stained with FITC anti-BrdU for 20 minutes, and incubated with PI staining solution (50 μg/mL PI, 10 mM Tris-HCl pH 7.5, 5 mM MgCl2, 10 μg/mL DNase-free RNaseA) for 30 minutes at 37° C. For both assays, cells were analyzed on a BD LSRII instrument.

[2] = system: cleaved PARP in DLD1 cells; test: Western blot of cleaved PARP; type: cell-based, human; details: DLD1, 50 nM 5-FdU
Procedure: (§1) Western blots were performed as described in Yan et al. (Clin Cancer Res. (2007) 13:1532-39). Antibodies used were as follows: Anti-UDG (FL-313) (Santa Cruz Biotechnology), anti-Cleaved PARP (Asp214)(19F4) (Cell Signaling), and anti-α-Tubulin (Calbiochem).

[3] = system: cleaved PARP in HEC1A cells; test: Western blot of cleaved PARP; type: cell-based, human; details: HEC1A, 50 nM 5-FdU
Procedure: as §1

[4] = system: γH2AX foci in HEC1A cells; test: γH2AX foci immunofluorescence staining; type: cell-based, human; details: 50 nM 5-FdU
Procedure: (§2) Cells cultured on glass coverslips were treated with 5-FdU in the presence or absence of 10 μM caspase inhibitor Q-VD-OPH (BioVision Inc). Cells were fixed in 3.7% formaldehyde for 10 minutes, blocked with PBS containing 10% FBS and 0.1% Triton X-100 for 20 minutes, washed with PBS three times, and incubated with primary anti-γH2AX antibody (Millipore, dilution: 1:150) in PBS containing 0.1% Triton X-100 at 4° C. overnight. The cells were then washed with PBS three times, incubated with secondary antibodies (Alexa Fluor 594, Life Technologies; dilution: 1:400) in PBS containing 0.1% Triton X-100 for 1 h, and washed with PBS three times. The slides were mounted with antifade solution with DAPI (Cell Signaling) and visualized on a Leica laser microscope.

γH2AX foci in DLD1 cells = test: γH2AX foci immunofluorescence staining; type: cell-based, human; details: 50 nM 5-FdU
Procedure: as §2

DLD1 cells [5] = test: LC-MS/MS of uracil and 5-FU incorporated in cellular DNA; details: 5-FdU 100 and 200 nM 48 h
Procedure: Genomic DNA was extracted from cells treated with 5-FdU via phenol-chloroform mixture. 80 μg of DNA sample was dissolved in 1×UDG reaction buffer (20 mM Tris-HCl, 1 mM EDTA and 1 mM dithiothreitol, pH 8.0) and incubated with UDG enzyme (1 μL, 5 units) for 1 h at 37° C. For LC-MS/MS analysis of DNA-incorporated uracil and 5-FU, 75 μL of the enzyme reaction mixture was obtained, and uracil-1,3-^15N2 was used as the internal standard (Sigma-Aldrich). All uracil and 5-FU standards, internal standard, and QC samples were prepared in 1×UDG reaction buffer. […] Quantitation of the analytes was accomplished by a AB Sciex API 3200 triple quadrupole tandem mass spectrometer (AB Sciex), which was operated in the negative multiple-reaction-monitoring (MRM) mode with mass transitions of m/z 110.8>42.0 for uracil, m/z 112.9>43.0 for uracil-1,3-^15N2 and m/z 129.0>42.0 for 5-FU. This method has lower limits of quantitation of 2.50 ng/mL and linear calibration ranges up to 500 ng/mL for both uracil and 5-FU with a sample injection volume of 15 μL, as well as a total analysis time of 6 min.

HCT116 p53 WT cells = details: HCT116 p53 WT, shUDG vs shSCR
Text: (§4) p53 or UDG knockdown was achieved via shRNA transduction. Lentiviral vectors LV-THM-shp53 (which also expresses a GFP reporter) or LV-Bleo-shp53 to perform p53 KD in WT HCT116 cells were obtained from Case Western Reserve University, Cleveland, Ohio Lentiviral vector targeting GFP (sh-GFP) was used as control. UDG shRNA vectors (shUDG: NM_003362.2-656s21c1, shUDG-2: NM_003362.2-758s21c1, and shUDG-3: NM_003362.2-893s21c1) were purchased from Sigma, and a scramble targeting shRNA vector (Sigma) was used as paired control. The lentiviral production and infection were performed as previously described. Cells stably infected with LV-THM-p53 were isolated by cell sorting on the basis of their GFP expression.
as §3

DLD1 cells [6] = test: AP site detection assay (genomic uracil and 5-FU); type: cell-based, human; details: for levels of AP sites: 0-200 nM 5-FdU 48 h
Procedure: The amount of cellular AP sites was assessed as we previously described by using a NIR cyanine-based AP site probe. […] After the reaction, AP site probe with a final concentration of 25 μM was added and incubated at 37° C. for 1 h. Following incubation, extracted DNA was precipitated, and the supernatant was discarded. DNA pellets were resuspended in H2O, and DNA concentrations were measured and adjusted. The fluorescence intensities of each sample were analyzed with 760 nm excitation and emission scan of 790-847 nm.

p53 WT cancer lines = test: Clonogenic survival assay, panel of p53 WT lines
Text: as §4, §3

Text for HCT116 p53 KO cells: as §4, §3

For `O=c1[nH]c(=O)n([C@H]2C[C@H](O)[C@@H](CO)O2)cc1F` [5-FdU, 5-fluorodeoxyuridine], the IC50 (H1299) was 0.2696 ± 0.00073 µM, the “cell cycle progression (PI staining)” value (DLD1 cells [1]; synchronized DLD1 UDG depleted, late G1 and early S phase, lasted 48 h) was “strong cell cycle arrest” and the “cell cycle progression (PI staining)” value (DLD1 cells [1]; synchronized DLD1 shSCR, through S phase by 36 h) was “slowed the progression”. The “cell cycle profile (BrdU and PI co-staining)” value (DLD1 cells [1]; unsynchronized DLD1 shSCR) was “S phase arrest especially at middle and late S phase”, the “cell cycle profile (BrdU and PI co-staining)” value (DLD1 cells [1]; unsynchronized DLD1 shUDG) was “arrested at late G1 and early S phase” and the “time of 5-FdU treatment until appearance of cleaved PARP” value [2] was over 24 h. For the same compound, the “time of 5-FdU treatment until appearance of cleaved PARP” value [3] was over 96 h, the “γH2AX foci number and percentage of cells with over 10 foci over time” value (“γH2AX foci number and percentage” below) ([4]; HEC1A UDG depleted) was “remained high” and the “γH2AX foci number and percentage” value ([4]; HEC1A shSCR, after maximum at 48 h) was “reduced at 72 h and 96 h”. The “γH2AX foci number and percentage” value (γH2AX foci in DLD1 cells; DLD1 UDG depleted) was “remained persistent”, the “γH2AX foci number and percentage” value (γH2AX foci in DLD1 cells; DLD1 shSCR, after maximum at 12 h) was “gradually declined” and the “released uracil and 5-FU from genomic DNA” value (DLD1 cells [5]; shSCR-transfected cells) was “Very low levels”. The “released uracil and 5-FU from genomic DNA” value (DLD1 cells [5]; shUDG-transfected cells) was “significant increase”, the “effect of UDG depletion on cytotoxicity” value (HCT116 p53 WT cells) was “did not significantly affect” and the “resistance compared with p53 WT cells” value (HCT116 p53 KO cells; HCT116 p53 KO vs p53 WT) was “more resistant”. The “effect of UDG depletion on cytotoxicity” value (HCT116 p53 KO cells; HCT116 p53 KO, shUDG vs shSCR) was “greatly enhanced cytotoxicity”, the “level of uracil and 5-FU in UDG depleted cells relative to shSCR-transfected cells” value (DLD1 cells [6]; 100 nM 5-FdU 24 h) was “about three times higher” and the “levels of AP sites” value (DLD1 cells [6]; shSCR-transfected cells) was “remained low”. The “levels of AP sites” value (DLD1 cells [6]; shUDG-transfected cells, dose dependent) was “dramatic increase”, the IC50 (p53 WT cancer lines; read-out: IC50 values, p53 WT cancer lines except A375) was under 0.01 µM and the “effect of UDG depletion on cytotoxicity” value (p53 WT cancer lines; shUDG vs shSCR, p53 WT cell lines) was “did not alter the cytotoxicity”.
